Measured values taken from patent US8546447B2, “Treatment of acne using derivatives of 5-aminolevulinic acid” (Photocure ASA, priority 2004, dated 2013).

Experiments:
[1] = test system: Propionibacterium acnes (P. acnes); experiment: Dark toxicity of ALA esters in P. acnes (survival assay, colony forming ability); assay type: cell-based; details: for % CFU (mean normalised colony-forming units): 4 hours in the dark at 37° C.; for dark toxicity (FIG. 2): Example 1, concentrations up to 20 mM, 4 hours in the dark
Description: (§1) Propionibacterium acnes (P. acnes) was obtained from American Type Culture Collection (ATCC No. 6919), and bacteria were grown anaerobically in the dark on blood-agar plates at 37° C.
PIPES buffer (ca. 1 ml) was added to each blood-agar petri-plate and with the help of a sterile glass-rod and a Pasteur pipette, the bacteria solution was transferred to a 20 ml test-tube. The suspension was then diluted with PIPES buffer until the optical density (OD) was 1.00±0.01 at 550 nm as measured by a spectrophotometer.
(§2) A bacteria sample (100 μl of the suspension containing approx. 5×10^8 bacteria per ml) was collected and used as a t=0 control. Aliquots of the bacteria suspension were mixed with suitable volumes of the stock solutions of 5-ALA esters (containing 100 mM ALA ester) to obtain the appropriate concentrations and incubated for 4 hours at 37° C. in the dark. If illumination was not performed, survival was then assessed as described below.
(§3) After treatment with ALA esters (with or without illumination), the treated bacteria samples (as well as untreated controls) were collected and further diluted with PIPES buffer to 1×10^4 bacteria per ml. Aliquots of 20 ml of this suspension were then transferred to Bactoagar Petri-dishes (Futsaether et al., Can. J. Microbiol., 39(2): 180-186 1993), and incubated for 3-5 days at 37° C. in the dark. The colonies formed on the Bactoagar Petri-plates were counted using a colony counter. Cell survival after incubation with different concentrations of 5-ALA esters is given relative to the control samples (i.e. samples collected at t=0 hrs and the sample collected after 4 hrs incubation without 5-ALA ester) and given as percent survival: Survival=[Ctreated/Ccontrol]×100%
In order to find suitable conditions for studying the photodynamic effect in P. acnes after incubation with ALA esters, a study was performed to assay the toxicity of the esters. This was done in the dark to avoid any PDT effect caused by stray light.
In order to find suitable conditions for studying the photodynamic effect in P. acnes after incubation with benzyl-, 4-chlorobenzyl-, 4-nitrobenzyl-, 2-methylbenzyl-, 4-methylpentyl- and 2-methoxyethyl 5-aminolevulinate, a study was performed to assay the toxicity of these compounds. This was done in the dark, as in Example 1, to avoid any PDT effect caused by stray light.

P. acnes [2] = experiment: PDT with CureLight LED 128 (Aktilite) lamp, P. acnes survival; assay type: cell-based, Propionibacterium acnes; details: for kill / PDT effect, photodynamic inactivation (FIG. 10): 0.4 mM; for kill: 10 minutes illumination; for PDT effect, photodynamic inactivation (FIG. 10): Aktilite 128 lamp; for bacteria killed: 26 minutes of illumination (78 J/cm^2)
Description: as §1
(§4) PIPES buffer (ca. 1 ml) was added to each blood-agar petri-plate and with the help of a sterile glass-rod and a Pasteur pipette, the bacteria solution was transferred to a 20 ml test-tube. The suspension was then diluted with PIPES buffer until the optical density (OD) was 1.00±0.01 at 550 nm as measured by a spectrophotometer. At this OD the bacteria density is approximately 5×10^8 cells per ml.
as §2, §3
In order to compare the ALA hexyl ester and the ALA benzyl ester at the same concentration (1 mM), and also to test another light source, another experiment involving the use of a narrow-band red light (CureLight LED 128 lamp sold under the tradename Aktilite by Photocure ASA, Norway) was conducted. This lamp consists of 128 light emitting diodes (LED) and has a peak wavelength of 634±3 nm. The emission spectrum of the lamp has a full width at half maximum (FWHM) of 18 nm. The fluence rate at 50 mm distance is approx. 50 mW/cm^2 (max. fluence rate variation of the target area is ±10%).
After incubation with the ALA esters, 10 ml bacterial suspensions were irradiated in a 5.5 cm plastic petri-dish (see general section above). The petri-dishes were placed on a support lying in a large water-reservoir at ambient temperature in order to avoid temperature effects. […] After 3-5 days of incubation (at 37° C. in the dark) the survival was determined as described in the general section and given relative to the non-illuminated control sample.
Photodynamic inactivation of P. acnes after incubation with the 5-ALA esters listed in Example 9 (at 0.4 mM concentration) was studied following illumination with an Aktilite® 128 lamp.

P. acnes [3] = experiment: PDT with CureLight BroadBand lamp, P. acnes survival; assay type: cell-based, Propionibacterium acnes; details: for effectiveness to kill the bacteria (FIG. 3): 4 mM methyl ester, 4 mM benzyl ester, 1 mM hexyl ester, red light 580-740 nm
Description: as §1, §4, §2
In some cases, illumination was performed on the bacteria-suspensions treated with ALA esters. The exact conditions are described in the Examples below. After illumination, survival was assayed as described below.
as §3
Bacteria suspensions (P. acnes) were treated with 4 mM ALA methyl ester, 4 mM benzyl ester and 1 mM hexyl ester (due to high dark toxicity results for this ester) as described in the general section above, diluted and illuminated using a CureLight BroadBand lamp (available from PhotoCure ASA, Norway, red light of 580-740 nm and a fluence rate of ≦840 W/m^2) under temperature controlled conditions (e.g. at ambient temperature). During illumination, 2×20 μl aliquots were collected every second minute for at total of 10 minutes and assayed for survival as described in the general section above. Relative survival after illumination was calculated relative to the control sample without red light exposure.

P. acnes [4] = experiment: Intracellular porphyrin formation in P. acnes (fluorescence emission); assay type: cell-based, Propionibacterium acnes; details: four hours incubation at 37° C. in the dark, various concentrations
Description: To study the intracellular porphyrin formation after incubation with the ALA esters, bacteria (5×10^8 cells per ml, 10 ml) were incubated with ALA esters at 37° C. in the dark for four hours. The formation of porphyrins was followed by studying the fluorescence emission spectra (the porphyrins display characteristic peaks). The procedure was as follows:
To assess the amount of endogenously retained porhyrins, 8 ml of the 5-ALA ester incubated bacteria were added to plastic test-tubes and incubated at 2-3° C. in the refrigerator to halt further 5-ALA ester uptake and/or porhyrin formation. Then the cells from were pelleted by centrifugation (5000 g, 5 rain, 2-3° C.), the supernatant discarded and the cells resuspended in fresh buffer (8 ml) and mixed well. Aliquots of 2 ml bacterial suspension were transferred to standard disposable plastic cuvettes, and fluorescence emission spectra of the cell suspensions were determined in a Perkin Elmer LS 50B fluorescence spectrometer using the following settings:
Excitation wavelength, λx: 405 nm
Emission wavelength, λe: 550-700 nm
Excitation and emission slits: 5 nm
Emission monochromator speed: 300 nm/min
The fairly broad range of wavelengths measured was motivated by the need to have a control of the autofluorescence from the bacteria, which is most easily discernable at the lower or higher wavelengths.

P. granulosum = experiment: Dark toxicity in P. granulosum; assay type: cell-based, Propionibacterium granulosum
Description: Propionibacterium granulosum (P. granulosum) was obtained from American Type Culture Collection (ATCC No. 25564).
as §4, §2
After treatment with ALA esters (with or without illumination), the treated bacteria samples (as well as untreated controls) were collected and further diluted with PIPES buffer to 1×10^4 bacteria per ml. […] The colonies formed on the Bactoagar Petri-plates were counted using a colony counter. […]

P. avidum = experiment: Dark toxicity in P. avidum; assay type: cell-based, Propionibacterium avidum
Description: Propionibacterium avidum (P. avidum) was obtained from ATCC (ATCC No. 25577).
as §4, §2
After treatment with ALA esters (with or without illumination), the treated bacteria samples (as well as untreated controls) were collected and further diluted with PIPES buffer to 1×10^4 bacteria per ml. Aliquots of 20 ml of this suspension were then transferred to Bactoagar Petri-dishes (Futsaether et al., Can. J. Microbiol., 39(2): 180-186 1993), and incubated for 3-5 days at 37° C. in the dark. The colonies formed on the Bactoagar Petri-plates were counted using a colony counter. […]

[5] = Itoh et al. 2001; Hongcharau et al. 2000; cited from earlier work
[6] = Example 9, concentrations up to 20 mM
[7] = hexylester compared with benzylester

| Structure (SMILES) | % CFU (mean normalised colony-forming units) ([1]; 0.4 mM) | % CFU (mean normalised colony-forming units) ([1]; 4 mM) | % CFU (mean normalised colony-forming units) ([1]; 20 mM) | kill (P. acnes [2]) | PDT effect, photodynamic inactivation (FIG. 10) (P. acnes [2]) | dark toxicity (FIG. 2) [1] | effectiveness to kill the bacteria (FIG. 3) (P. acnes [3]) | inducing porphyrin formation (FIG. 5) (P. acnes [4]) | other results |
| --- | --- | --- | --- | --- | --- | --- | --- | --- | --- |
| NCC(=O)CCC(=O)OCc1ccc(Cl)cc1 [4-chlorobenzyl, 4-chlorobenzyl ALA ester] | 81.6% | 3.7% | 0.0% | ~100% | most efficient |  |  |  | dark toxicity (in words) ([1]; Example 9, at 4 mM): considerable toxicity |
| Cc1ccccc1COC(=O)CCC(=O)CN [2-methylbenzyl, 2-methylbenzyl ALA ester] | 66.0% | 1.2% | 0.0% | approx. 50% | good abilities to kill the bacteria |  |  |  | dark toxicity (in words) ([1]; Example 9, at 4 mM): considerable toxicity |
| NCC(=O)CCC(=O)OCc1ccccc1 [Benzyl, benzyl 5-aminolevulinate] | 78.3% | 62.9% | 15.0% | approx. 50% | good abilities to kill the bacteria | intermediate toxicity | most effective | by far the most effective inducer | light dose sufficient to obtain 100% kill (P. acnes [3]; 4 mM, CureLight BroadBand lamp): approx. 10 J/cm^2; bacteria killed (P. acnes [2]; 1 mM): killed all bacteria; photodynamic effect (FIG. 4) (P. acnes [2]; 1 mM, LED lamp 634 nm): much better photodynamic effect |
| COCCOC(=O)CCC(=O)CN [2-methoxyethyl, 2-methoxyethyl 5-aminolevulinate] | 75.5% | 60.8% | 54.0% |  | weaker PDT effect |  |  |  | dark toxicity (in words) [1, 6]: almost no toxicity |
| CC(C)CCCOC(=O)CCC(=O)CN [4-methylpentyl, 4-methylpentyl ALA ester] | 86.5% | 37.3% | 0.5% |  | weaker PDT effect |  |  |  |  |
| CCCCCCOC(=O)CCC(=O)CN [ALA hexyl ester, Hexyl 5-aminolevulinate] |  |  |  |  |  | very toxic | quite effective | least effective | bacteria killed (P. acnes [2]; 1 mM): 40%; killed (P. granulosum; 4 mM, dark): 100%; dark toxicity (FIG. 6) (P. granulosum; [7]): considerably more toxic; killed (P. avidum; 4 mM, dark): 100%; dark toxicity (FIG. 6) (P. avidum; [7]): considerably more toxic |
| COC(=O)CCC(=O)CN [ALA methyl ester, methyl ALA ester] |  |  |  |  |  | essentially non-toxic | least effective | slightly higher porphyrin levels |  |
| NCC(=O)CCC(=O)OCc1ccc([N+](=O)[O-])cc1 [4-nitrobenzyl, 4-nitrobenzyl ALA ester] | 63.5% | 61.8% | 53.2% | ~100% | most efficient |  |  |  | dark toxicity (in words) [1, 6]: almost no toxicity |
| NCC(=O)CCC(=O)O [5-ALA, 5-amino-4-oxo-pentanoic acid] |  |  |  |  |  |  |  |  | adverse effects of ALA-PDT [5]: significant adverse effects; efficacy of ALA-PDT for treatment of acne [5]: may be effective |
